Type in all cases: in vivo, Arabidopsis thaliana
For assay [1], the system named is phloem-specific IR-PTGS sensor. The assay is described as follows: Visual chlorotic phenotype of sprayed phloem-specific IR-PTGS sensor (SUC-SUL plants). The settings on record: for vein-centered chlorotic phenotype (IR-PTGS activity): sprayed on phloem-specific IR-PTGS sensor; for chlorotic phenotype / PTGS activity, phloem-specific reporter: 2 mM SA with 0.02% Silwet L-77, 5 days, SUC-SUL. The source says:
A. […]
In step (b), said molecule, microorganism or extract can be applied either at seedling stage or at later developmental stages such as at rosette stage. This molecule, microorganism or extract is applied either in liquid medium in (micro) well-plates, by infiltration using a needle-less syringe or vacuum, or by spray using a concentration of surfactant that is known from people skilled in the art.
Visual observation of step (c) can be made several days, preferably 4 to 5 days, after step (b) The term “silencing” means down-regulating or antagonizing, at least partly, a targeted gene transcript.
For this purpose, they have sprayed a previously characterized phloem-specific IR-PTGS sensor (Dunoyer et al., 2005) with either (1) Salicylic acid (SA), a well-characterized phytohormone that plays a critical role in resistance against biotrophic pathogens, (2) 2,6-dichloroisonicotonic acid and benzo-(1,2,3)-thiadiazole-7-carbothioic acid S-methyl ester (BTH), a functional analog of SA that is regularly used by farmers to enhance disease resistance in crops, (3) Aliette, formulated fosetyl-Aluminium that can stimulate plant antimicrobial defense in cultivated plants but also protect them from fungal and oomycete infections through a potent and systemic fungicide activity, (4) Serenade, which is composed of formulated Bacillus subtilis (5) formulated Laminarine, a beta 1-3 glucan that mimics fungal cell wall and therefore promote natural antifungal defense responses in some cultivated plants; and have further monitored the effects of such treatments on the vein-centered chlorotic phenotype of this IR-PTGS reporter system. […] It is noteworthy that the presented molecular analyses allow us (i) to detect at which steps of the PTGS a given molecule is acting (small RNA biogenesis and/or RISC activity) (ii) to quantify the strength by which the candidate molecules is modulating RNA silencing in a given tissue that is relevant for disease management. […]

Assay [2] deals with SUL transcript. Put plainly: RT-qPCR of SUL transcript levels in SA-treated SUC-SUL leaves. The settings on record: 2 mM SA + 0.01% Silwet L-77, 3 days, vs Mock. The method, then:
B. RT-qPCR analysis depicting SUL and CIP4 transcript levels in SUC-SUL leaves treated with either Mock (0.01% Silwet L-77 only) or with 2 mM of SA (+0.01% Silwet L-77) for 3 days.
(§1) For this purpose, they have sprayed a previously characterized phloem-specific IR-PTGS sensor (Dunoyer et al., 2005) with either (1) Salicylic acid (SA), a well-characterized phytohormone that plays a critical role in resistance against biotrophic pathogens, (2) 2,6-dichloroisonicotonic acid and benzo-(1,2,3)-thiadiazole-7-carbothioic acid S-methyl ester (BTH), a functional analog of SA that is regularly used by farmers to enhance disease resistance in crops, (3) Aliette, formulated fosetyl-Aluminium that can stimulate plant antimicrobial defense in cultivated plants but also protect them from fungal and oomycete infections through a potent and systemic fungicide activity, (4) Serenade, which is composed of formulated Bacillus subtilis (5) formulated Laminarine, a beta 1-3 glucan that mimics fungal cell wall and therefore promote natural antifungal defense responses in some cultivated plants; and have further monitored the effects of such treatments on the vein-centered chlorotic phenotype of this IR-PTGS reporter system. […]
Background: In qPCR the cycle at which signal appears reflects the starting amount.

The test system of assay [3] is SUL protein. Put plainly: Western blot of SUL protein levels in SA-treated SUC-SUL leaves. The note with it: 2 mM SA + 0.01% Silwet L-77, 3 days, vs Mock. The method, then:
C. Western blot analyses showing SUL and CIP4 protein levels in SUC-SUL leaves treated with either Mock (0.01% Silwet L-77 only) or with 2 mM of SA (+0.01% Silwet L-77) for 3 days.
as §1
A general note: In western blotting, separated proteins are transferred to a membrane and probed.

Assay [4] has as its system artificial siRNAs. The text has this:
These level analyses will determine (i) at which steps of the RNA silencing pathway a given molecule, microorganism or extract is acting (small RNA biogenesis, accumulation and/or activity) (ii) the intensity by which a given molecule, microorganism or extract is modulating RNA silencing. Regarding the quantification of artificial or endogenous small RNA accumulation, Low Molecular Weight (LMW) Northern blot analyses or Real Time quantitative PCR (RT-qPCR) analyses can be used. Concerning the quantification of artificial or endogenous small RNA targets, High Molecular Weight (HMW) Northern analyses or RT-PCR analyses can be used. […]

The test system of assay [5] is biosensor specific to xylem parenchyma cells. Put plainly: Visual chlorosis of sprayed xylem-specific biosensors (AAP6-p::SUL-LUS, IRX3-p::SUL-LUS). The note with it: 2 mM SA with 0.02% Silwet L-77, 5 days, AAP6-p::SUL-LUS and IRX3-p::SUL-LUS; listed as SA. The protocol:
Picture of 5-week-old SUC-SUL, HYD-p::SUL-LUS, AAP6-p::SUL-LUS, IRX3-p::SUL-LUS or GC1-p::SUL-LUS plants treated either Mock (0.02% Silwet L-77 only) or 2 mM of SA (with 0.02% Silwet L-77) for 5 days.
To test whether the increase level of PTGS detected in SA-treated phloem-specific IR-PTGS sensor is detectable to other tissues, the inventors have sprayed different tissue-specific biosensors with the same concentration of SA. The biosensors specific to hydathodes, xylem parenchyma cells, guard cells and companion cells of phloem were sprayed with SA and the level of chlorosis was assessed 5 day later (FIG. 6). […] These observations therefore highlight the importance of using different tissue-specific biosensors to screen natural or synthetic compounds, microorganisms, macro- or micro-organism extracts that can have a PTGS inducer activity specifically in a given tissue that is relevant to manage a specific disease. On the contrary, we are anticipating that the whole series of reporters will be also exploited to identify molecules, microorganisms or extracts that can induce PTGS/immune responses in all the above tissues. Such compounds, microorganisms or extracts will have the potential to confer broad-spectrum disease resistance and to restrict growth of pathogens with different modes of entry, propagation and replication. […]

In the case of `O=C(O)c1cc(Cl)nc(Cl)c1` [2,6-dichloroisonicotonic acid], in assay [1], the “vein-centered chlorotic phenotype (IR-PTGS activity)” value (“vein-centered chlorotic phenotype” for short) is listed as “significant enhanced chlorotic phenotypes”.
Consider `CSC(=O)c1cccc2nnsc12` [BTH, benzo-(1,2,3)-thiadiazole-7-carbothioic acid S-methyl ester], for which, in assay [1], the “vein-centered chlorotic phenotype” value is “significant enhanced chlorotic phenotypes”.
For the compound `O=C(O)c1ccccc1O` [Salicylic acid], in assay [2], the SUL transcript accumulation entry was “mild reduction”. For the same compound, the SUL protein levels result in assay [3] is “significant decrease”. Further, in assay [4], the “accumulation of artificial siRNAs” value is listed as “no significant effect”. Besides, in assay [1], the “chlorotic phenotype / PTGS activity, phloem-specific reporter” value was “promotes PTGS activity” and the “vein-centered chlorotic phenotype” value was “significant enhanced chlorotic phenotypes”. Besides, the “chlorotic phenotype / PTGS activity, phloem-specific reporter” value in assay [1] (listed as SA) is reported as “significant enhanced chlorotic phenotype”. The “chlorotic phenotype / PTGS activity, xylem parenchyma reporters” value in assay [5] is recorded as “not in other silencing reporter tested”.
